Where two headings read alike, the source gives them in different places. Values belong to the compound of their own block, whether it stands above or below them.
Experiments:
[1] = Dissolution test of tablets in simulated gastric buffer, released SNAC by HPLC; type: physicochemical; details: tablet with 100 mg sodium bicarbonate vs tablet without; simulated gastric buffer pH 2.0, 37° C.
Protocol: The tablets were in a form of a homogeneous mixture.
Each tablet formulation was subjected to a dissolution test in 100 ml of simulated gastric buffer (without pepsin), pH 2.0, at 37° C., according to USP 23 Apparatus 2 (paddle) with 50 rotations per minute. The amount of released SNAC in each sample was determined chromatographically, using an HPLC apparatus with Cosmosil™ 5 C18-MS-II (4.6 ID×250 mm) column. Mobile phase consisted of 50% acetonitrile and 50% phosphoric acid solution (0.1%). Flow rate was 1 ml/minute and injection volume was 25 μl. Amount of released SNAC was calculated as a percentage of the amount of SNAC in the formulation.

[2] = Open label pharmacokinetic study of oral teriparatide tablet, two visits; type: in vivo, human; details: for Tmax: human, plasma, po, 0.75 mg; for Tmax / Cmax after 1st administration / Cmax after 2nd administration: oral tablet 0.75 mg teriparatide with SNAC and SBTI
Protocol: An open label comparative pharmacokinetic study was performed in healthy volunteers over the course of 3 months. Each volunteer received—in each of two visits—the same oral tablet containing 0.75 mg of teriparatide, a recombinant form of parathyroid hormone (1-34).
The formulation was composed of teriparatide (0.75 mg), SNAC (sodium 8-N-(2-hydroxybenzoyl)aminocaprylate), soybean trypsin inhibitor (SBTI) and a small amount of magnesium stearate.
Tablets were administered in the morning after an 8-hour overnight fast and immediately followed by 150 ml of water. At each visit a standard meal was provided 3 hours after drug administration. […] There was a two weeks period between the visits.
(§1) To determine parathyroid hormone(1-34) (PTH(1-34)) concentrations, blood samples (4 ml each) were drawn via an indwelling catheter from the forearm vein at predetermined time points during each visit. The cannula was flushed with 1.5 ml normal saline after each sampling. In addition, to avoid sample dilution, 1 ml of blood was drawn and discarded before the next sample. The blood samples were taken at following times: baseline (predose), 10 minutes, 15 minutes, 20 minutes, 30 minutes, 45 minutes, 60 minutes, 75 minutes, 90 minutes, 105 minutes, 2 hours, 3 hours, 4 hours and 5 hours post-administration. Each blood sample was collected into a single tube containing EDTA (ethylenediaminetetraacetic acid) and placed on ice. Within 15 minutes of blood collection, samples were centrifuged for 10 minutes at 4° C. (2500 rotations per minute) and the plasma was separated and divided into two or three aliquots. Each aliquot was transferred into appropriately labeled polypropylene tubes and stored at approximately −20° C. pending analysis. PTH(1-34) levels were measured using an IDS-iSYS automated assay for the measurement of intact PTH(1-34) in human plasma or serum.

[3] = Phase I clinical study of oral teriparatide formulations vs subcutaneous injection, plasma PTH(1-34); type: in vivo, human
Protocol: A Phase I clinical study of exemplary oral formulations comprising teriparatide (parathyroid hormone (1-34)) was conducted at the Hadassah Clinical Research Center. 42 healthy volunteers were included throughout the study.
The formulation was composed of teriparatide (200, 400, 680, 1400 or 1800 μg), SNAC (sodium 8-N-(2-hydroxybenzoyl) aminocaprylate), soybean trypsin inhibitor and magnesium stearate.
Tablets were administered in the morning after an 8-hour overnight fast and immediately followed by 150 ml of water. At each visit a standard meal was provided 3 hours after drug administration.
as §1, with “hormone” for “hormone(1-34) (PTH(1-34))”, “points.” for “points during each visit.”, “(predose),” for “(predose), 10 minutes,”, “15” for “15 minutes, 20”
Oral administration of teriparatide was performed as described hereinabove at doses of 200, 400, 680, 1400 or 1800 μg. The Cmax of PTH(1-34) for each orally administered dose was compared with the Cmax of PTH(1-34) for subcutaneous injection of 20 μg teriparatide.

[4] = tested on: cAMP, a known marker of PTH activity; experiment: Plasma cAMP levels after oral or subcutaneous teriparatide; type: in vivo, human
Protocol: In addition, plasma levels of cAMP, a known marker of PTH activity, were determined in order to confirm biological activity of administered PTH. cAMP plasma levels were measured following oral administration of 680 μg teriparatide or subcutaneous injection of 20 μg teriparatide, as described hereinabove.

[5] = Pharmacokinetic study of oral teriparatide tablet with water or sodium bicarbonate solution; type: in vivo, human; details: oral tablet 0.75 mg with 150 ml of 3 mg/ml sodium bicarbonate solution
Protocol: An open label comparative pharmacokinetic study was performed on ten healthy volunteers. On different visits, each volunteer received the same oral tablet containing 0.75 mg of teriparatide, a recombinant form of parathyroid hormone (1-34) (PTH(1-34)). In the first visit, the tablet was administered with 150 ml water, whereas in the second visit the tablet was administered with 150 ml of 3 mg/ml sodium bicarbonate aqueous solution.
The formulation was composed of teriparatide (0.75 mg), SNAC (sodium 8-N-(2-hydroxybenzoyl) aminocaprylate), soybean trypsin inhibitor (SBTI) and a small amount of magnesium stearate.
Tablets were administered in the morning after an 8-hour overnight fast. At each visit a standard meal was provided 3 hours after drug administration. […] There was a two week period between the two visits.
To determine PTH(1-34) concentrations, blood samples were drawn and PTH(1-34) levels were measured using an IDS-iSYS automated assay, using procedures described in Example 1 hereinabove. Relative absorption was determined based on the AUC (area under curve) parameter.

dissolution (release) of SNAC from tablet [1]: considerably enhanced the dissolution
SMILES: O=C(O)CCCCCCCNC(=O)c1ccccc1O [SNAC, sodium 8-N-(2-hydroxybenzoyl)aminocaprylate]

Tmax ([2]; subject A, fasted, plasma PTH(1-34), read-out: Tmax after 1st administration (converted)): 15 min
Tmax ([2]; subject A, two weeks after 1st, read-out: Tmax after 2nd administration (converted)): 20 min
Tmax ([2]; subject B, fasted, plasma PTH(1-34), read-out: Tmax after 1st administration (converted)): 10 min
Tmax ([2]; subject B, two weeks after 1st, read-out: Tmax after 2nd administration (converted)): 20 min
Tmax ([2]; subject C, fasted, plasma PTH(1-34), read-out: Tmax after 1st administration (converted)): 10 min
Tmax ([2]; subject C, two weeks after 1st, read-out: Tmax after 2nd administration (converted)): 20 min
time for plasma levels to return to baseline levels after tablet administration ([2]; oral tablet 0.75 mg): ≤ 60 min
Cmax between different administrations in a given subject ([2]; oral tablet 0.75 mg, two administrations two weeks apart): relatively constant
Cmax after 1st administration ([2]; subject A, fasted, plasma PTH(1-34)): 195 picogram/ml
Cmax after 2nd administration ([2]; subject A, two weeks after 1st): 283 picogram/ml
Cmax after 1st administration ([2]; subject B, fasted, plasma PTH(1-34)): 124 picogram/ml
Cmax after 2nd administration ([2]; subject B, two weeks after 1st): 116 picogram/ml
Cmax after 1st administration ([2]; subject C, fasted, plasma PTH(1-34)): 35 picogram/ml
Cmax after 2nd administration ([2]; subject C, two weeks after 1st): 36 picogram/ml
decline of PTH levels following oral administration compared with subcutaneous administration ([3]; oral 1800 μg vs subcutaneous 20 μg): declined considerably more rapidly
Cmax of PTH(1-34) following oral administration, relation to dose ([3]; oral 200, 400, 680, 1400 or 1800 μg): proportional to the dose
oral dose providing a Cmax equivalent to subcutaneous administration of 20 μg teriparatide ([3]; oral tablet with SNAC and soybean trypsin inhibitor): roughly 750 μg
increase of absorption (AUC) in comparison with co-administration with water [5]: about 35%
SMILES: CC[C@H](C)[C@H](NC(=O)[C@H](CCC(=O)O)NC(=O)[C@H](CO)NC(=O)[C@@H](NC(=O)[C@@H](N)CO)C(C)C)C(=O)N[C@@H](CCC(N)=O)C(=O)N[C@@H](CC(C)C)C(=O)N[C@@H](CCSC)C(=O)N[C@@H](Cc1cnc[nH]1)C(=O)N[C@@H](CC(N)=O)C(=O)N[C@@H](CC(C)C)C(=O)NCC(=O)N[C@@H](CCCCN)C(=O)N[C@@H](Cc1cnc[nH]1)C(=O)N[C@@H](CC(C)C)C(=O)N[C@@H](CC(N)=O)C(=O)N[C@@H](CO)C(=O)N[C@@H](CCSC)C(=O)N[C@@H](CCC(=O)O)C(=O)N[C@@H](CCCN=C(N)N)C(=O)N[C@H](C(=O)N[C@@H](CCC(=O)O)C(=O)N[C@@H](Cc1c[nH]c2ccccc12)C(=O)N[C@@H](CC(C)C)C(=O)N[C@@H](CCCN=C(N)N)C(=O)N[C@@H](CCCCN)C(=O)N[C@@H](CCCCN)C(=O)N[C@@H](CC(C)C)C(=O)N[C@@H](CCC(N)=O)C(=O)N[C@@H](CC(=O)O)C(=O)N[C@H](C(=O)N[C@@H](Cc1cnc[nH]1)C(=O)N[C@@H](CC(N)=O)C(=O)N[C@@H](Cc1ccccc1)C(=O)O)C(C)C)C(C)C [teriparatide]
plasma cAMP levels ([4]; oral administration of 680 μg): increased plasma cAMP levels to a similar degree
plasma cAMP levels ([4]; subcutaneous administration of 20 μg): increased plasma cAMP levels to a similar degree

— patent US20180028622A1, “TREATMENT OF OSTEOPOROSIS” (Entera Bio Ltd., priority 2015, published 2018)
